We go through 21 compounds from PubChem BioAssay AID208 (DTP/NCI, 2004).

Results filed as inconclusive are left out. *1 amine or outer side, *2 acyl side, *3 side chain or, on linkers, in order; H or OH if unused. Where a SMILES comes first, the peptide text is derived from it. Bridges are numbered along the chain shown (N, C = ends). Roman numbers before positions name the chains, in order. [ ]: non-standard residue; d: D form. Actinocin(9to1) = Cc1c2oc3c(C)ccc(C(=O)[*:1])c3nc-2c(C(=O)[*:2])c(N)c1=O; aThr = C[C@H](O)[C@H](N)C(=O)O; NMeV = CN[C@H](C(=O)O)C(C)C; Sar = CNCC(=O)O

The experiment has as its system HT29 intrarenal xenograft, nude mice, tumor weight change. The experiment in a line: NCI In Vivo Anticancer Drug Screen. Data for tumor model HT29;CX-1 Human Adenocarcinoma (MER+) (intrarenal inoculation) in NU/NU BALB/C (nude) mice. To be noted: endpoint: mean tumor weight change, higher = larger tumour. The method, then:
The antitumor activity of compounds was measured in mice bearing transplantable tumors. Survival or tumor size were measured and the results are expressed as the measurement made in the treated group (T) divided by the measurement made in the vehicle treated control group (C). The tumor model used in this assay is HT29;CX-1 Human Adenocarcinoma (MER+) (intrarenal inoculation) in NU/NU BALB/C (nude) mice

[1] abbreviates: dose: 75.0 mg/kg/injection, schedule: Q04DX004 (sc), vehicle: saline.

In the case of `C/C(=N\NC(=S)N1CCN(c2ccccn2)CC1)c1ccccn1`, for the setting “dose: 50.0 mg/kg/injection, schedule: Q04DX004 (sc), vehicle: water”, the T/C was 158 % of control.
Turning to `COc1cc(C2c3cc4c(cc3C(O)C(CO)C2CO)OCO4)cc(OC)c1OC` (configuration not stated), the T/C by setting is: (dose: 200.0 mg/kg/injection, schedule: Q04DX004 (sc), vehicle: saline with Tween-80) 72 % of control; (dose: 400.0 mg/kg/injection, schedule: Q04DX004 (sc), vehicle: saline with Tween-80) 49 % of control; (dose: 800.0 mg/kg/injection, schedule: Q04DX004 (sc), vehicle: saline with Tween-80) 96 % of control; (dose: 1600.0 mg/kg/injection, schedule: Q04DX004 (sc), vehicle: saline with Tween-80) 30 % of control.
Take `CN(C)N=Nc1ccc(S(N)(=O)=O)cc1`: the T/C runs as follows: (dose: 100.0 mg/kg/injection, schedule: Q01DX010 (sc), vehicle: Klucel (hydroxypropylcellulose) (HPC)) 81 % of control; (dose: 200.0 mg/kg/injection, schedule: Q01DX010 (sc), vehicle: Klucel (hydroxypropylcellulose) (HPC)) 104 % of control.
For the compound `O=C1C2CC(Cl)C(SSC3CC4C(=O)N(SC(Cl)(Cl)C(Cl)Cl)C(=O)C4CC3Cl)CC2C(=O)N1SC(Cl)(Cl)C(Cl)Cl` (configuration not stated), the T/C reads like this: (dose: 75.0 mg/kg/injection, schedule: Q04DX004 (ip), vehicle: Klucel (hydroxypropylcellulose) (HPC)) 56 % of control; (dose: 150.0 mg/kg/injection, schedule: Q04DX004 (ip), vehicle: Klucel (hydroxypropylcellulose) (HPC)) 58 % of control; (dose: 300.0 mg/kg/injection, schedule: Q04DX004 (ip), vehicle: Klucel (hydroxypropylcellulose) (HPC)) 39 % of control; (dose: 600.0 mg/kg/injection, schedule: Q04DX004 (ip), vehicle: Klucel (hydroxypropylcellulose) (HPC)) 35 % of control.
As for `CC(/C=C/c1ccccc1)=Nc1ccccc1`, the T/C is 46 % of control (dose: 1200.0 mg/kg/injection, schedule: Q04DX004 (sc), vehicle: saline with Tween-80) and 54 % of control (dose: 1800.0 mg/kg/injection, schedule: Q04DX004 (sc), vehicle: saline with Tween-80).
With `O=P1(NCCCl)OCCCN1CCCl` (configuration not stated), the T/C under setting [1] is 68 % of control.
For the compound `Nc1ncnc2c1ccn2C1OC(CO)C(O)C1O` (configuration not stated), the T/C was 96 % of control (dose: 2.0 mg/kg/injection, schedule: Q01DX010 (sc), vehicle: Klucel (hydroxypropylcellulose) (HPC)) and 81 % of control (dose: 4.0 mg/kg/injection, schedule: Q01DX010 (sc), vehicle: Klucel (hydroxypropylcellulose) (HPC)).
In the case of `CCOC(=O)NC1=C(N2CC2)C(=O)C(NC(=O)OCC)=C(N2CC2)C1=O`, the T/C (dose: 1.56 mg/kg/injection, schedule: Q01DX010 (sc), vehicle: saline) was 120 % of control; the T/C (dose: 3.13 mg/kg/injection, schedule: Q01DX010 (sc), vehicle: saline) was 88 % of control; the T/C (dose: 6.25 mg/kg/injection, schedule: Q01DX010 (sc), vehicle: saline) was 107 % of control.
Turning to `CCN1C=C/C(=C\C=C/c2cc[n+](CC)c3ccccc23)c2ccccc21`, for the setting “dose: 0.5 mg/kg/injection, schedule: Q01DX010 (sc), vehicle: saline”, the T/C was 229 % of control.
With `O=C(O)C1(NO)CCCCC1`, the T/C is 168 % of control (dose: 200.0 mg/kg/injection, schedule: Q04DX004 (sc), vehicle: Klucel (hydroxypropylcellulose) (HPC)); 122 % of control (dose: 400.0 mg/kg/injection, schedule: Q04DX004 (sc), vehicle: Klucel (hydroxypropylcellulose) (HPC)); 92 % of control (dose: 1600.0 mg/kg/injection, schedule: Q04DX004 (sc), vehicle: Klucel (hydroxypropylcellulose) (HPC)).
`COC(=O)[C@@]12OC[C@]34[C@H]([C@@H](O)[C@@H]1O)[C@@]1(C)CC(=O)C(O)=C(C)[C@@H]1C[C@H]3OC(=O)[C@H](OC(=O)/C=C(\C)C(C)C)[C@@H]24`: for the setting “dose: 0.5 mg/kg/injection, schedule: Q01DX010 (sc), vehicle: saline + alcohol”, the T/C was 35 % of control.
On to `Cc1ccoc1`, for which the T/C by setting is: (dose: 50.0 mg/kg/injection, schedule: Q01DX010 (ip), vehicle: saline with Tween-80) 92 % of control; (dose: 100.0 mg/kg/injection, schedule: Q01DX010 (ip), vehicle: saline with Tween-80) 63 % of control; (dose: 200.0 mg/kg/injection, schedule: Q01DX010 (ip), vehicle: saline with Tween-80) 90 % of control.
Take `ClCCCN1CCCCC1CCl` (configuration not stated): the T/C (dose: 6.25 mg/kg/injection, schedule: Q04DX004 (sc), vehicle: saline) is 57 % of control; the T/C (dose: 12.5 mg/kg/injection, schedule: Q04DX004 (sc), vehicle: saline) is 95 % of control; the T/C (dose: 25.0 mg/kg/injection, schedule: Q04DX004 (sc), vehicle: saline) was 71 % of control.
As for `Cc1c2oc3c(C)ccc(C(=O)N[C@@H]4C(=O)N[C@H](C(C)C)C(=O)N5CCC[C@H]5C(=O)N(C)CC(=O)N(C)[C@@H](C(C)C)C(=O)O[C@H]4C)c3nc-2c(C(=O)N[C@@H]2C(=O)N[C@H](C(C)C)C(=O)N3CCC[C@H]3C(=O)N(C)CC(=O)N(C)[C@@H](C(C)C)C(=O)O[C@H]2C)c(N)c1=O` (I: [aThr][dV]P[Sar][NMeV] / II: [aThr][dV]P[Sar][NMeV]; ester I:1-I:C, II:1-II:C; linker I:N-II:N via Actinocin(9to1)), the T/C (dose: 0.03 mg/kg/injection, schedule: Q04DX004 (ip), vehicle: saline) was 77 % of control; the T/C (dose: 0.05 mg/kg/injection, schedule: Q04DX004 (ip), vehicle: saline) is 77 % of control; the T/C (dose: 0.08 mg/kg/injection, schedule: Q04DX004 (ip), vehicle: saline) was 97 % of control.
For the compound `CN(C)N=Nc1cccc(C(N)=O)c1`, the T/C is 91 % of control (dose: 25.0 mg/kg/injection, schedule: Q04DX004 (sc), vehicle: Klucel (hydroxypropylcellulose) (HPC)); 85 % of control (dose: 50.0 mg/kg/injection, schedule: Q04DX004 (sc), vehicle: Klucel (hydroxypropylcellulose) (HPC)); 123 % of control (dose: 100.0 mg/kg/injection, schedule: Q04DX004 (sc), vehicle: Klucel (hydroxypropylcellulose) (HPC)).
Turning to `CCCCNCCCNCCCNC(=O)c1csc(-c2csc(CCNC(=O)C(NC(=O)C(C)C(O)C(C)NC(=O)C(NC(=O)c3nc(C(CC(N)=O)NCC(N)C(N)=O)nc(N)c3C)C(OC3OC(CO)C(O)C(O)C3OC3OC(CO)C(O)C(OC(N)=O)C3O)c3cnc[nH]3)C(C)O)n2)n1` (configuration not stated), the T/C was 30 % of control (dose: 8.0 mg/kg/injection, schedule: Q01DX010 (sc), vehicle: saline) and -32 % of control (dose: 32.0 mg/kg/injection, schedule: Q01DX010 (sc), vehicle: saline).
On to `CC1CCC(n2cnc3c(Cl)ncnc32)O1` (configuration not stated), for which the T/C reads like this: (dose: 150.0 mg/kg/injection, schedule: Q04DX004 (sc), vehicle: Klucel (hydroxypropylcellulose) (HPC)) 76 % of control; (dose: 300.0 mg/kg/injection, schedule: Q04DX004 (sc), vehicle: Klucel (hydroxypropylcellulose) (HPC)) 80 % of control; (dose: 600.0 mg/kg/injection, schedule: Q04DX004 (sc), vehicle: Klucel (hydroxypropylcellulose) (HPC)) 64 % of control.
With `O=NN(CCCl)C(=O)NC1OC(CO)C(O)C(O)C1O` (configuration not stated), the T/C is, setting by setting: (dose: 5.0 mg/kg/injection, schedule: Q04DX004 (sc), vehicle: saline) 75 % of control; (dose: 10.0 mg/kg/injection, schedule: Q04DX004 (sc), vehicle: saline) 76 % of control; (dose: 20.0 mg/kg/injection, schedule: Q04DX004 (sc), vehicle: saline) 57 % of control.
For the compound `Oc1cccc2ccccc12`, the T/C (dose: 150.0 mg/kg/injection, schedule: Q04DX004 (ip), vehicle: water) was 63 % of control.
For the compound `COc1cc2c(ccc3c4cc(OC)c(OC)cc4c[n+](C)c23)cc1O`, the T/C was 49 % of control under setting [1]; 42 % of control (dose: 150.0 mg/kg/injection, schedule: Q04DX004 (sc), vehicle: saline); 51 % of control (dose: 300.0 mg/kg/injection, schedule: Q04DX004 (sc), vehicle: saline); 75 % of control (dose: 600.0 mg/kg/injection, schedule: Q04DX004 (sc), vehicle: saline).
Take `CS(=O)(=O)c1ncc(Br)cn1`: the T/C by setting is: (dose: 25.0 mg/kg/injection, schedule: Q01DX010 (sc), vehicle: saline with Tween-80) 106 % of control; (dose: 50.0 mg/kg/injection, schedule: Q01DX010 (sc), vehicle: saline with Tween-80) 123 % of control; (dose: 100.0 mg/kg/injection, schedule: Q01DX010 (sc), vehicle: saline with Tween-80) 185 % of control.
